# Laboratory results taken from ChEMBL document CHEMBL1201862, “PubChem BioAssay data set” (2004).
# Calls of active or inactive are those of the source.
# Key:
# [1] = target: Luciferin 4-monooxygenase (Photinus pyralis, UniProt P08659); assay: inhibition of purified Photinus pyralis luciferase – biochemical, luminescence, dose response (AID 1891)
# [2] = Luminescence Cell-Based Dose Confirmation HTS to Identify Inhibitors of Platelet Dense Granule Release. [Related pubchem assays: 1663 (Primary HTS), 1678 (Summary of Project)]; format: functional
# [3] = target: T1, Short transient receptor potential channel 4 (Mus musculus, UniProt Q9QUQ5); assay: block of DAMGO-driven TRPC4 calcium entry – cell-based, HEK293 TRPC4/mu-opioid, Fluo-4 calcium, dose response (AID 434942); format: functional;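 note: potency of inhibitors blocking the TRPC4 calcium response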
# T1 sequence (Q9QUQ5 whole entry): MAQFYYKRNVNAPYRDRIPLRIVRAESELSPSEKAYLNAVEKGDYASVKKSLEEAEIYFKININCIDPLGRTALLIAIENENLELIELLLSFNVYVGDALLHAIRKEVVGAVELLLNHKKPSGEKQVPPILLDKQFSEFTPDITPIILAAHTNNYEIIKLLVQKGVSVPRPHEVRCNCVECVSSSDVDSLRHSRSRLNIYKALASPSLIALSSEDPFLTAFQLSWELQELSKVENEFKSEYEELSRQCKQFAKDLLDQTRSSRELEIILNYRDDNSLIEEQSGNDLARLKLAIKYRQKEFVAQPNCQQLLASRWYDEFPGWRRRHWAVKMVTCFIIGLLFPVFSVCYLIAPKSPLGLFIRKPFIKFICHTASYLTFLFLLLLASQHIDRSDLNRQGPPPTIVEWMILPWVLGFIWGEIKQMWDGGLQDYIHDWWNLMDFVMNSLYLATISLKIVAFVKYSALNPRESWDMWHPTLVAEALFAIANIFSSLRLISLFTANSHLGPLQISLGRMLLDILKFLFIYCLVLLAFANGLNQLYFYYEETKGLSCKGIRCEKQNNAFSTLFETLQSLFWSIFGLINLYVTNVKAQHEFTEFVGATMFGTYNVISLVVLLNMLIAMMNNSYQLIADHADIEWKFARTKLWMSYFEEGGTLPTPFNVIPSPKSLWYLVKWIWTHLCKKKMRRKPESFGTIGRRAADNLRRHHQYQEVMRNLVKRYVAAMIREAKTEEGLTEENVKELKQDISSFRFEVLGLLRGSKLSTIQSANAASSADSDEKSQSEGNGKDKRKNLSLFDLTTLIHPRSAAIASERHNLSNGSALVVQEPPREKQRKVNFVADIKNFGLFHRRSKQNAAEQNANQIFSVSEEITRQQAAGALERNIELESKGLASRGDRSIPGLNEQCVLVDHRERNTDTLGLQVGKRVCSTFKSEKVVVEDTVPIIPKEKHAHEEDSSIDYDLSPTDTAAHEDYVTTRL
# H9c2 = assay: cells; format: functional, cell-based; conditions: Rattus norvegicus, H9c2, Myocardium;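 note: confirmatory concentration-response retest of ultra-high-throughput screening hits for modulation of myocardial damage; cell death induced by hydrogen peroxide oxidative stress; compound pretreatment for 60 min then peroxide exposure for 2 h; potency is for protecting the cells against peroxide damage rather than for killing them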
# Cytochrome P450 2C19 = Cytochrome P450 2C19 (Homo sapiens, UniProt P33261); assay: Cytochrome panel assay with activity outcomes. Panel member name: p450-cyp2c19 Compounds with AC50 equal or less than 10 uM are considered active; format: functional; conditions: read-out: AC50
# Cytochrome P450 3A4 = Cytochrome P450 3A4 (Homo sapiens, UniProt P08684);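 note: CYP3A4 tested as one member of a cytochrome P450 panel screen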
# Cytochrome P450 2C9 = Cytochrome P450 2C9 (Homo sapiens, UniProt P11712)
# Cytochrome P450 1A2 = target: T2, Cytochrome P450 1A2 (Homo sapiens, UniProt P05177);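 note: PubChem cytochrome P450 panel assay, CYP1A2 panel member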
# T2 sequence (P05177 whole entry): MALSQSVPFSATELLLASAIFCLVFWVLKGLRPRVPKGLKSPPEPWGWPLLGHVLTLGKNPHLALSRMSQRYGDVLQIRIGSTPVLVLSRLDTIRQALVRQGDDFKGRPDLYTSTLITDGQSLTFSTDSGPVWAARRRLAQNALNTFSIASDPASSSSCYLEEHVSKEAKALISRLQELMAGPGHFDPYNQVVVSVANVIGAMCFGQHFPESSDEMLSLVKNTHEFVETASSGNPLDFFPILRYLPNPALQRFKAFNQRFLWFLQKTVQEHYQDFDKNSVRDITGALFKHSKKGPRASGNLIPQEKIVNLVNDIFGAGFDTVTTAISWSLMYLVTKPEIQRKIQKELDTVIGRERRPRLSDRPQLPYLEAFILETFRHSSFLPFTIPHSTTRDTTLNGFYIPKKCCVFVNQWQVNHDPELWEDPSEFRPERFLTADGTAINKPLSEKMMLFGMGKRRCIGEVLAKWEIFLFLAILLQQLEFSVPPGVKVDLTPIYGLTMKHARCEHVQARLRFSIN
# [4] = target: T3, Rac GTPase-activating protein 1 (Homo sapiens, UniProt Q9H0H5); assay: blockers of MgcRacGAP-driven Rac1 GTP hydrolysis – biochemical, ADP Hunter fluorescence, primary and confirmatory, confirmation (AID 624330); format: functional
# T3 sequence (Q9H0H5 whole entry): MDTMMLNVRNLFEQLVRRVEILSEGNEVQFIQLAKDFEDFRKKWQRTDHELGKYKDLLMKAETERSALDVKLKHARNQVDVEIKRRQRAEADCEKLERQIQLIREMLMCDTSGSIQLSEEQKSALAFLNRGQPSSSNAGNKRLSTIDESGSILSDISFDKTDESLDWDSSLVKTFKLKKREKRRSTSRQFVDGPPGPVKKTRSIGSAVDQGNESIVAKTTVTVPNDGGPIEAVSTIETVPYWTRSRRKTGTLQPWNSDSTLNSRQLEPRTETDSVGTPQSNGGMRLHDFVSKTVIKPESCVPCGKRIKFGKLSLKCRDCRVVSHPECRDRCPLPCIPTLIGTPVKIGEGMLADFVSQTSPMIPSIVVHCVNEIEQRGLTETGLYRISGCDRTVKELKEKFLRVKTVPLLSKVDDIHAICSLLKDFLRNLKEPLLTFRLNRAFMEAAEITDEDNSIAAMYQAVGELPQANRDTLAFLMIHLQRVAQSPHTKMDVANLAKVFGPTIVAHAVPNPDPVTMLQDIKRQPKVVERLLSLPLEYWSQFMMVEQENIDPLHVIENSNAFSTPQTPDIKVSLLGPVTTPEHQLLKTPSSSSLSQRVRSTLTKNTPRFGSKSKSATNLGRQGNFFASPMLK
# [5] = Luminescence Cell-Based Dose Retest to Confirm Inhibitors of Cancer Stem Cells. [Related pubchem assays (depositor defined):AID2717, AID2721]; format: functional; conditions: Homo sapiens
# [6] = alpha-synuclein stem-loop luciferase translation blockers – H4 neuroglioma cells, luminescence, confirmation (AID 1988); format: functional, cell-based
# [7] = target: T4, RNA-binding protein pos-1 (Caenorhabditis elegans, UniProt G5EF15); assay: disruptors of C. elegans POS-1 RNA interaction – biochemical, fluorescence polarization, dose response (AID 1964);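 note: purified POS-1 fused to maltose binding protein made in E. coli; potency of compounds blocking POS-1 binding to fluorescent RNA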
# T4 sequence (G5EF15 whole entry): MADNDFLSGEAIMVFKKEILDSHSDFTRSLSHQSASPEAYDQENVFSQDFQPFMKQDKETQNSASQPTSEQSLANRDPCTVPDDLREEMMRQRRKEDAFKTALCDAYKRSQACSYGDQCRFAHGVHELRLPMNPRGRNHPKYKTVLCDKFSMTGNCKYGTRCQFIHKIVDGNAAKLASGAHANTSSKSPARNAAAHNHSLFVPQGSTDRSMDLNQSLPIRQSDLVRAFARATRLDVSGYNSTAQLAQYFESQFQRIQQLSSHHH
# Chain of Luciferin 4-monooxygenase (P08659 whole entry): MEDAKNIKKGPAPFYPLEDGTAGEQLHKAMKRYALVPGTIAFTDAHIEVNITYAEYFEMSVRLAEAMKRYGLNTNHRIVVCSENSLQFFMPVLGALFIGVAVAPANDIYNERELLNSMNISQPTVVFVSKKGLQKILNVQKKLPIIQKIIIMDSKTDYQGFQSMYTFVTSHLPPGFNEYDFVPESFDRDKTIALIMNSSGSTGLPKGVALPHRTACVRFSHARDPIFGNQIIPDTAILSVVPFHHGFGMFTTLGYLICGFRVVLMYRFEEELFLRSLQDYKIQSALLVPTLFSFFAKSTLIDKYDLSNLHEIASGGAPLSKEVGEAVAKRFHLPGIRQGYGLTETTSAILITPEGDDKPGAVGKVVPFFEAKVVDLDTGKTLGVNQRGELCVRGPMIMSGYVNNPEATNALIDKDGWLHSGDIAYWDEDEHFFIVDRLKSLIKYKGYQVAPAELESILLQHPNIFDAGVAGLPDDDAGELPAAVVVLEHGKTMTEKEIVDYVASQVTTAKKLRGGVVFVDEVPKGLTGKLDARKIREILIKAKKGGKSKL
# Chain of Cytochrome P450 2C9 (P11712 whole entry): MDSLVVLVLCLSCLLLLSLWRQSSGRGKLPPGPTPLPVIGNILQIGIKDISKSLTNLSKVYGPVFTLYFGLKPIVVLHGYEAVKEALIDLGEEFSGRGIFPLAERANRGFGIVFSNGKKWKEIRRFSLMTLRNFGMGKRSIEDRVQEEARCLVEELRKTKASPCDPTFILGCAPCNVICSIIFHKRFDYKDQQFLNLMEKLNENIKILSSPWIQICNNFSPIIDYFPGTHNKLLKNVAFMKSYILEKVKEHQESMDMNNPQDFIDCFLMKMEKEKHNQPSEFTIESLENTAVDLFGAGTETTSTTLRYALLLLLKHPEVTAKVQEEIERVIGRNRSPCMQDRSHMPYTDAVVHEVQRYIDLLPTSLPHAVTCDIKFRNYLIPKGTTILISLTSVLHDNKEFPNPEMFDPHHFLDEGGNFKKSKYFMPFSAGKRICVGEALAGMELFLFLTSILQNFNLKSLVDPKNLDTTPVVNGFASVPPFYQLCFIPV
# Chain of Cytochrome P450 2C19 (P33261 whole entry): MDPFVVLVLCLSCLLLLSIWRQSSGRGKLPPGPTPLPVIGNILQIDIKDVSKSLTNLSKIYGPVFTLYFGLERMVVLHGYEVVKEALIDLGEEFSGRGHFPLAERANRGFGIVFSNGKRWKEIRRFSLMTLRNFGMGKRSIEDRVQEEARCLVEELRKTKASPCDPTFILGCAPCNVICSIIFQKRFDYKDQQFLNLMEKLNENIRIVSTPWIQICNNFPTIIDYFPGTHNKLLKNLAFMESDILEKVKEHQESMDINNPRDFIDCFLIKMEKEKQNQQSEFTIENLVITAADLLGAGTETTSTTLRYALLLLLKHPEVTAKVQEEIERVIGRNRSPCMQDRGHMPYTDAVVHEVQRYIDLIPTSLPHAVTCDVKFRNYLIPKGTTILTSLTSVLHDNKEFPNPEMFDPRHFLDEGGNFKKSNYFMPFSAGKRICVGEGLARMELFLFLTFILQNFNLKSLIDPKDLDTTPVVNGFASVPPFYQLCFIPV
# Chain of Cytochrome P450 3A4 (P08684 whole entry): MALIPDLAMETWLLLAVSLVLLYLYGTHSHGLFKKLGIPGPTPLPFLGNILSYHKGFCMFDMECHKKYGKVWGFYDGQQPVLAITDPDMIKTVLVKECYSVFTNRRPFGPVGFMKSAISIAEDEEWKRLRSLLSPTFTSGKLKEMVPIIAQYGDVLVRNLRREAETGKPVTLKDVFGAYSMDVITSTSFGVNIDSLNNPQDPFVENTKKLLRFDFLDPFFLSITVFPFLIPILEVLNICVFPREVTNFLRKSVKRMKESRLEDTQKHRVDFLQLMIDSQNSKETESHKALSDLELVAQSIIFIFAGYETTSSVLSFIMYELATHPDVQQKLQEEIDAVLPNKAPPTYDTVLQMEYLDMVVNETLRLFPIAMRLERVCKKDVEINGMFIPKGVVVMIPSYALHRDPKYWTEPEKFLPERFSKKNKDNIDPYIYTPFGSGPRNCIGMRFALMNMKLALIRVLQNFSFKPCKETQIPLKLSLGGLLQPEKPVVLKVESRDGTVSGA
compound,measurement,setting,value
Nc1nc(Nc2ccccc2)nc2c1ncn2[C@@H]1O[C@H](CO)[C@@H](O)[C@H]1O,EC50,[1],> 112 µM (not active)
same,EC50,[2],0.224 µM (active)
Nc1c2c(nc3c1CCCC3)CCCC2.O=C(O)c1ccnc(O)c1,EC50,[3],2.99 µM (active)
CCOc1cc(/C=C/c2nc(O)c3ccccc3n2)ccc1O,IC50,H9c2,9.17 µM (active)
Cc1ccccc1OCCC(=O)N1CCN(S(=O)(=O)c2ccccc2F)CC1,EC50,[1],> 112 µM (not active)
same,EC50,[2],> 112 µM (not active)
O=C(CCc1ccccc1)Nc1nncs1,EC50,[1],> 112 µM (not active)
same,AC50,Cytochrome P450 2C19,39.8 µM (inconclusive)
same,AC50,Cytochrome P450 3A4,12.6 µM (inconclusive)
same,EC50,[2],> 112 µM (not active)
same,AC50,Cytochrome P450 2C9,31.6 µM (inconclusive)
CCOc1ccc(N/C=C/C(=O)c2ccc(OC)cc2)cc1,EC50,[1],> 112 µM (not active)
same,EC50,[2],> 112 µM (not active)
CCn1nnc(NC(=O)c2cccnc2)n1,EC50,[1],> 112 µM (not active)
same,EC50,[2],> 112 µM (not active)
CCOC(=O)c1ccc(-c2ccc(/C=C(\C#N)C(=O)NCC3CCCO3)o2)cc1 (configuration not stated),AC50,Cytochrome P450 2C19,2.51 µM (inconclusive)
same,AC50,Cytochrome P450 1A2,4.47 µM (inconclusive)
same,IC50,H9c2,> 79 µM (inactive)
same,AC50,Cytochrome P450 2C9,5.62 µM (inconclusive)
O=C(CCCSc1nc(O)c2c3c(sc2n1)CCC3)NCCCO,IC50,H9c2,19.9 µM (active)
CS(=O)(=O)N(Cc1ccc(C(=O)NCCSc2ccccn2)cc1)c1ccccc1,IC50,H9c2,17.4 µM (active)
CCOC(=O)c1ccccc1NC(=O)c1ccc2c(=O)n3c(nc2c1)CCCCC3,IC50,H9c2,> 79 µM (inactive)
COc1cc(CNC2CCCCC2OC)cc(OC)c1 (configuration not stated),IC50,[4],152 µM (active)
Clc1ccc(/C=C/c2nc3ccccc3[nH]2)cc1,EC50,[1],0.545 µM (active)
same,AC50,[5],2.34 µM (active)
same,EC50,[2],1.05 µM (active)
same,EC50,[6],9.68 µM (inconclusive)
Oc1ccc(-c2csc(Nc3cccnc3)n2)cc1,IC50,[4],18.2 µM (active)
COc1ccc(CNC(=O)CN(C)Cc2ccccc2F)cc1OC,EC50,[3],8.41 µM (active)
CC(=O)Nc1ccc(OC(=O)N(C)c2ccccc2)cc1,EC50,[1],> 112 µM (not active)
same,EC50,[2],18.8 µM (active)
COc1ccc(C)cc1N(C(=O)c1snc(C(N)=O)c1N)C(C(=O)NC1CCCC1)c1ccc(F)cc1 (configuration not stated),EC50,[3],1.33 µM (active)
Cc1cc(C)c(S(=O)(=O)c2ccccc2C)c(OCC(C)(C)C)n1,EC50,[3],2.37 µM (active)
COc1ccc(C(=O)NNC(=O)c2ccc3ccccc3n2)cc1,IC50,H9c2,> 79 µM (inactive)
Cc1ccc(NC(=O)CN2CCc3ccccc3C2)cc1S(=O)(=O)N1CCOCC1,EC50,[3],3.76 µM (active)
O=C(CN1C(=O)c2cccc3cccc1c23)N1CCN(c2cccc(Cl)c2)CC1,EC50,[1],> 112 µM (not active)
same,EC50,[2],> 112 µM (not active)
CSc1nc(N2CCOCC2)c2c3c(sc2n1)CCCC3,EC50,[3],4.73 µM (active)
O=C(Cn1c(NCCCO)nc2ccccc21)c1ccc(Br)cc1,EC50,[3],2.99 µM (active)
CCOC(=O)CSc1nc2c(sc(=S)n2Cc2ccco2)c(=O)n1-c1ccccc1,EC50,[3],2.37 µM (active)
Oc1ccc(N2CCN(c3ccnc4cc(Cl)ccc34)CC2)cc1,IC50,[4],48.3 µM (active)
Cc1ccc(NC(=O)CSCC(=O)OCc2cc(=O)oc3cc(O)ccc23)c(C)c1,EC50,[3],5.96 µM (active)
CCS(=O)(=O)c1ccc2oc(=O)c(/C=C(\O)c3ccc(Cl)cc3)nc2c1,IC50,[4],99.7 µM (active)
C=CCOc1ccc(C2CC(C)=NN2c2ccccc2)cc1 (configuration not stated),EC50,[3],4.22 µM (active)
CCCCN(Cc1ccccc1)C(=O)C1CCN(Cc2sccc2C)CC1,EC50,[3],2.99 µM (active)
CC(C)CC(=O)Nc1cccc(NC(=O)c2ccccc2Cl)c1,EC50,[1],> 112 µM (not active)
same,EC50,[2],2.39 µM (active)
CCCCn1c(SCC(=O)OCC)nc2c(sc(=S)n2-c2ccccc2OC)c1=O,EC50,[3],1.68 µM (active)
O=C1CSC(Nc2ccc(O)cc2)=N1,IC50,[4],35.9 µM (active)
CN(CC(=O)Nc1cccc(F)c1)C(=O)CCCc1nc(O)c2ccccc2n1,IC50,H9c2,> 79 µM (inactive)
CC(=O)Nc1cccc(-c2cc(NC(C)=O)c3ncc(-c4cccc(C(C)=O)c4)n3c2)c1,IC50,H9c2,> 79 µM (inactive)
COc1cc(-c2cc(NC(C)=O)c3ncc(-c4cc(OC)c(OC)c(OC)c4)n3c2)cc(OC)c1OC,IC50,H9c2,> 79 µM (inactive)
COc1ccc(CCCNC(=O)C2(C)Cc3c(-c4ccc(NC(C)=O)cc4)ccnc3O2)cc1 (configuration not stated),IC50,H9c2,> 79 µM (inactive)
COc1cc(/C=C/C(=O)OC(C)C(=O)Nc2c(C)n(C)n(-c3ccccc3)c2=O)ccc1O (configuration not stated),IC50,[4],61.4 µM (active)
CCOC(=O)c1ccccc1OCc1cc(/C=N/NC(=O)c2cccnc2)ccc1OC,IC50,H9c2,> 79 µM (inactive)
CN(C)c1ccc(/C=N/N(CCC(=O)NC(C)(C)C)C2=NS(=O)(=O)c3ccccc32)cc1,EC50,[7],> 300 µM (not active)
CCOc1cc(/C=N/NC(=O)C(C)Sc2ccccn2)ccc1O (configuration not stated),IC50,[4],39.8 µM (active)
